Laboratory results published in patent publication US20230085307A1, “PYRIDAZINONE COMPOUND AND HERBICIDE” (NISSAN CHEMICAL CORPORATION, priority 2019, published 2023).

Assays:
[1] = tested on: wild oat; assay: Test Example 4: herbicidal effect by soil treatment (Table 19, symbol I); assay type: in vivo, wild oat (Avena fatua)
Summary of the method: (§1)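 Step 1: sow seeds in sterilized diluvial soil, cover ~1.5 cm. Step 2: spray diluted emulsion onto soil surface at predetermined rate. Step 3: greenhouse, 25–30° C, three weeks. Step 4: grade effect on each plant by earlier criteria.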

[2] = tested on: chickweed; assay: Test Example 5: herbicidal effect by foliage application, plastic box (Table 20, symbol P); assay type: in vivo, common chickweed (Stellaria media); settings: foliage application, three weeks after application
Summary of the method: (§2)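 Foliar spray test: emulsion formulation diluted in water to a set application rate, sprayed onto 14-day-old plants raised in diluvial soil at 25° C to 30° C under glass. Both herbicidal effect and crop effect rated visually three weeks later.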

[3] = tested on: lambsquarters; assay: Test Example 5: herbicidal effect by foliage application, plastic box (Table 20, symbol O); assay type: in vivo, lambsquarters (Chenopodium album); settings: foliage application, three weeks after application
Summary of the method: as §2

[4] = tested on: wild oat; assay: Test Example 5: herbicidal effect by foliage application, plastic box (Table 20, symbol I); assay type: in vivo, wild oat (Avena fatua); settings: foliage application, three weeks after application
Summary of the method: as §2

[5] = tested on: windgrass; assay: Test Example 5: herbicidal effect by foliage application, plastic box (Table 20, symbol L); assay type: in vivo, windgrass (Apera spica-venti); settings: foliage application, three weeks after application
Summary of the method: as §2

[6] = tested on: Italian ryegrass; assay: Test Example 5: herbicidal effect by foliage application, plastic box (Table 20, symbol K); assay type: in vivo, Italian ryegrass (Lolium multiflorum); settings: foliage application, three weeks after application
Summary of the method: as §2

[7] = tested on: velvetleaf; assay: Test Example 5: herbicidal effect by foliage application, plastic box (Table 20, symbol M); assay type: in vivo, velvetleaf (Abutilon theophrasti); settings: foliage application, three weeks after application
Summary of the method: as §2

[8] = tested on: chickweed; assay: Test Example 4: herbicidal effect by soil treatment (Table 19, symbol P); assay type: in vivo, common chickweed (Stellaria media)
Summary of the method: as §1

[9] = tested on: blackgrass; assay: Test Example 4: herbicidal effect by soil treatment (Table 19, symbol J); assay type: in vivo, blackgrass (Alopecurus myosuroides)
Summary of the method: as §1

[10] = tested on: redroot pigweed; assay: Test Example 5: herbicidal effect by foliage application, plastic box (Table 20, symbol N); assay type: in vivo, redroot pigweed (Amaranthus retroflexus); settings: foliage application, three weeks after application
Summary of the method: as §2

[11] = tested on: green foxtail; assay: Test Example 5: herbicidal effect by foliage application, plastic box (Table 20, symbol G); assay type: in vivo, green foxtail (Setaria viridis); settings: foliage application, three weeks after application
Summary of the method: as §2

[12] = tested on: redroot pigweed; assay: Test Example 4: herbicidal effect by soil treatment (Table 19, symbol N); assay type: in vivo, redroot pigweed (Amaranthus retroflexus)
Summary of the method: as §1

[13] = tested on: southern crabgrass; assay: Test Example 5: herbicidal effect by foliage application, plastic box (Table 20, symbol F); assay type: in vivo, southern crabgrass (Digitaria ciliaris); settings: foliage application, three weeks after application
Summary of the method: as §2

[14] = tested on: windgrass; assay: Test Example 4: herbicidal effect by soil treatment (Table 19, symbol L); assay type: in vivo, windgrass (Apera spica-venti)
Summary of the method: as §1

[15] = tested on: velvetleaf; assay: Test Example 4: herbicidal effect by soil treatment (Table 19, symbol M); assay type: in vivo, velvetleaf (Abutilon theophrasti)
Summary of the method: as §1

[16] = tested on: blackgrass; assay: Test Example 5: herbicidal effect by foliage application, plastic box (Table 20, symbol J); assay type: in vivo, blackgrass (Alopecurus myosuroides); settings: foliage application, three weeks after application
Summary of the method: as §2

[17] = tested on: barnyard grass; assay: Test Example 5: herbicidal effect by foliage application, plastic box (Table 20, symbol H); assay type: in vivo, barnyard grass (Echinochloa crus-galli); settings: foliage application, three weeks after application
Summary of the method: as §2

[18] = tested on: Italian ryegrass; assay: Test Example 4: herbicidal effect by soil treatment (Table 19, symbol K); assay type: in vivo, Italian ryegrass (Lolium multiflorum)
Summary of the method: as §1

[19] = tested on: southern crabgrass; assay: Test Example 4: herbicidal effect by soil treatment (Table 19, symbol F); assay type: in vivo, southern crabgrass (Digitaria ciliaris)
Summary of the method: as §1

[20] = tested on: persian speedwell; assay: Test Example 5: herbicidal effect by foliage application, plastic box (Table 20, symbol R); assay type: in vivo, Persian speedwell (Veronica persica); settings: foliage application, three weeks after application
Summary of the method: as §2

[21] = tested on: green foxtail; assay: Test Example 4: herbicidal effect by soil treatment (Table 19, symbol G); assay type: in vivo, green foxtail (Setaria viridis)
Summary of the method: as §1

[22] = tested on: lambsquarters; assay: Test Example 4: herbicidal effect by soil treatment (Table 19, symbol O); assay type: in vivo, lambsquarters (Chenopodium album)
Summary of the method: as §1

[23] = tested on: persian speedwell; assay: Test Example 4: herbicidal effect by soil treatment (Table 19, symbol R); assay type: in vivo, Persian speedwell (Veronica persica)
Summary of the method: as §1

[24] = tested on: barnyard grass; assay: Test Example 4: herbicidal effect by soil treatment (Table 19, symbol H); assay type: in vivo, barnyard grass (Echinochloa crus-galli)
Summary of the method: as §1

SMILES: CCCC(=O)Oc1c(OC)nn(C)c(=O)c1-c1c(-c2ccc(OC)cc2OC)sc2ccccc12 [1-181]
- I: wild oat, herbicidal effect rating ([1]; AAH 320 g/ha): 0 (Herbicidal rate of 5% or less (almost no effect))
- P: chickweed, herbicidal effect ([2]; AAH 320 g/ha): 4 (Herbicidal rate of 70% or more and less than 90%)
- O: lambsquarters, herbicidal effect ([3]; AAH 320 g/ha): 1 (Herbicidal rate of 5% or more and less than 20%)
- I: wild oat, herbicidal effect ([4]; AAH 320 g/ha): 0 (Herbicidal rate of 5% or less (almost no effect))
- L: windgrass, herbicidal effect ([5]; AAH 320 g/ha): 0 (Herbicidal rate of 5% or less (almost no effect))
- K: Italian ryegrass, herbicidal effect ([6]; AAH 320 g/ha): 0 (Herbicidal rate of 5% or less (almost no effect))
- M: velvetleaf, herbicidal effect ([7]; AAH 320 g/ha): 0 (Herbicidal rate of 5% or less (almost no effect))
- P: chickweed, herbicidal effect rating ([8]; AAH 320 g/ha): 1 (Herbicidal rate of 5% or more and less than 20%)
- J: blackgrass, herbicidal effect rating ([9]; AAH 320 g/ha): 0 (Herbicidal rate of 5% or less (almost no effect))
- N: redroot pigweed, herbicidal effect ([10]; AAH 320 g/ha): 0 (Herbicidal rate of 5% or less (almost no effect))
- G: green foxtail, herbicidal effect ([11]; AAH 320 g/ha): 0 (Herbicidal rate of 5% or less (almost no effect))
- N: redroot pigweed, herbicidal effect rating ([12]; AAH 320 g/ha): 0 (Herbicidal rate of 5% or less (almost no effect))
- F: southern crabgrass, herbicidal effect ([13]; AAH 320 g/ha): 0 (Herbicidal rate of 5% or less (almost no effect))
- L: windgrass, herbicidal effect rating ([14]; AAH 320 g/ha): 0 (Herbicidal rate of 5% or less (almost no effect))
- M: velvetleaf, herbicidal effect rating ([15]; AAH 320 g/ha): 0 (Herbicidal rate of 5% or less (almost no effect))
- J: blackgrass, herbicidal effect ([16]; AAH 320 g/ha): 0 (Herbicidal rate of 5% or less (almost no effect))
- H: barnyard grass, herbicidal effect ([17]; AAH 320 g/ha): 0 (Herbicidal rate of 5% or less (almost no effect))
- K: Italian ryegrass, herbicidal effect rating ([18]; AAH 320 g/ha): 0 (Herbicidal rate of 5% or less (almost no effect))
- F: southern crabgrass, herbicidal effect rating ([19]; AAH 320 g/ha): 0 (Herbicidal rate of 5% or less (almost no effect))
- R: persian speedwell, herbicidal effect ([20]; AAH 320 g/ha): 1 (Herbicidal rate of 5% or more and less than 20%)
- G: green foxtail, herbicidal effect rating ([21]; AAH 320 g/ha): 0 (Herbicidal rate of 5% or less (almost no effect))
- O: lambsquarters, herbicidal effect rating ([22]; AAH 320 g/ha): 0 (Herbicidal rate of 5% or less (almost no effect))
- R: persian speedwell, herbicidal effect rating ([23]; AAH 320 g/ha): 1 (Herbicidal rate of 5% or more and less than 20%)
- H: barnyard grass, herbicidal effect rating ([24]; AAH 320 g/ha): 0 (Herbicidal rate of 5% or less (almost no effect))

SMILES: COc1nn(C)c(=O)c(-c2c(-c3cc(F)c(F)c(F)c3)sc3ccccc23)c1O [1-186]
- I: wild oat, herbicidal effect rating ([1]; AAH 283 g/ha): 0 (Herbicidal rate of 5% or less (almost no effect))
- P: chickweed, herbicidal effect ([2]; AAH 283 g/ha): 5 (Herbicidal rate of 90% or more (almost completely withered))
- O: lambsquarters, herbicidal effect ([3]; AAH 283 g/ha): 2 (Herbicidal rate of 20% or more and less than 40%)
- I: wild oat, herbicidal effect ([4]; AAH 283 g/ha): 0 (Herbicidal rate of 5% or less (almost no effect))
- L: windgrass, herbicidal effect ([5]; AAH 283 g/ha): 0 (Herbicidal rate of 5% or less (almost no effect))
- K: Italian ryegrass, herbicidal effect ([6]; AAH 283 g/ha): 0 (Herbicidal rate of 5% or less (almost no effect))
- M: velvetleaf, herbicidal effect ([7]; AAH 283 g/ha): 3 (Herbicidal rate of 40% or more and less than 70%)
- P: chickweed, herbicidal effect rating ([8]; AAH 283 g/ha): 5 (Herbicidal rate of 90% or more (almost completely withered))
- J: blackgrass, herbicidal effect rating ([9]; AAH 283 g/ha): 0 (Herbicidal rate of 5% or less (almost no effect))
- N: redroot pigweed, herbicidal effect ([10]; AAH 283 g/ha): 4 (Herbicidal rate of 70% or more and less than 90%)
- G: green foxtail, herbicidal effect ([11]; AAH 283 g/ha): 0 (Herbicidal rate of 5% or less (almost no effect))
- N: redroot pigweed, herbicidal effect rating ([12]; AAH 283 g/ha): 2 (Herbicidal rate of 20% or more and less than 40%)
- F: southern crabgrass, herbicidal effect ([13]; AAH 283 g/ha): 0 (Herbicidal rate of 5% or less (almost no effect))
- L: windgrass, herbicidal effect rating ([14]; AAH 283 g/ha): 0 (Herbicidal rate of 5% or less (almost no effect))
- M: velvetleaf, herbicidal effect rating ([15]; AAH 283 g/ha): 0 (Herbicidal rate of 5% or less (almost no effect))
- J: blackgrass, herbicidal effect ([16]; AAH 283 g/ha): 0 (Herbicidal rate of 5% or less (almost no effect))
- H: barnyard grass, herbicidal effect ([17]; AAH 283 g/ha): 0 (Herbicidal rate of 5% or less (almost no effect))
- K: Italian ryegrass, herbicidal effect rating ([18]; AAH 283 g/ha): 0 (Herbicidal rate of 5% or less (almost no effect))
- F: southern crabgrass, herbicidal effect rating ([19]; AAH 283 g/ha): 0 (Herbicidal rate of 5% or less (almost no effect))
- R: persian speedwell, herbicidal effect ([20]; AAH 283 g/ha): 5 (Herbicidal rate of 90% or more (almost completely withered))
- G: green foxtail, herbicidal effect rating ([21]; AAH 283 g/ha): 0 (Herbicidal rate of 5% or less (almost no effect))
- O: lambsquarters, herbicidal effect rating ([22]; AAH 283 g/ha): 0 (Herbicidal rate of 5% or less (almost no effect))
- R: persian speedwell, herbicidal effect rating ([23]; AAH 283 g/ha): 4 (Herbicidal rate of 70% or more and less than 90%)
- H: barnyard grass, herbicidal effect rating ([24]; AAH 283 g/ha): 0 (Herbicidal rate of 5% or less (almost no effect))
